Data reported in the supplement of paper PMC10307832.

How the values were obtained:
Experiment in all cases: relative viability (nuclei count vs DMSO), 5 days (fraction); higher = more cells survive
[1] = compound: C[C@@]1(C(=O)Nc2ccc(F)nc2)CCCN1c1nc(Nc2cc(C3CC3)n[nH]2)c2cccn2n1 + Nc1ncn([C@H]2C[C@H](O)[C@@H](CO)O2)c(=O)n1 [Decitabine] (partner 2 µM)
Summary of the method: (§1)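 Nuclei were stained with Hoechst during a one-step fixation (final 0.05% Triton X-100, 1% formaldehyde, 1 ug/ml Hoechst) carried out 5 days after dosing, then counted on 4× images. The cells, lung cancer lines in 1536-well plates, had been dosed by pin tool the day after seeding with one drug alone or a fixed anchor-drug dose plus five library-drug doses (not always all listed) in √10 steps. Relative viability is the nuclei count in treated wells divided by that in vehicle wells, and each value is the median of duplicate plates.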

[2] = compound: C[C@@]1(C(=O)Nc2ccc(F)nc2)CCCN1c1nc(Nc2cc(C3CC3)n[nH]2)c2cccn2n1 + CC(=O)c1c(C)c2cnc(Nc3ccc(N4CCNCC4)cn3)nc2n(C2CCCC2)c1=O [Palbociclib] (partner 0.5 µM)
Summary of the method: as §1

[3] = compound: CC1(C)CNc2cc(NC(=O)c3cccnc3NCc3ccncc3)ccc21 [Motesanib] + C[C@@H](Oc1cc(-c2cnn(C3CCNCC3)c2)cnc1N)c1c(Cl)ccc(F)c1Cl [Crizotinib] (partner 1 µM)
Summary of the method: as §1

[4] = compound: CC1(C)CNc2cc(NC(=O)c3cccnc3NCc3ccncc3)ccc21 [Motesanib] + C[C@]1(O)C[C@@H](c2nc(-c3ccc4ccc(-c5ccccc5)nc4c3)c3c(N)nccn32)C1 [Linsitinib] (partner 1 µM)
Summary of the method: as §1

Cell Line	relative viability ([1]; first compound 0.04 µM)	relative viability ([1]; first compound 0.1265 µM)	relative viability ([1]; first compound 0.4 µM)	relative viability ([1]; first compound 1.265 µM)	relative viability ([2]; first compound 0.04 µM)	relative viability ([2]; first compound 0.1265 µM)	relative viability ([2]; first compound 0.4 µM)	relative viability ([2]; first compound 1.265 µM)	relative viability ([3]; first compound 0.01 µM)	relative viability ([3]; first compound 0.03162 µM)	relative viability ([3]; first compound 0.1 µM)	relative viability ([3]; first compound 0.3162 µM)	relative viability ([3]; first compound 1 µM)	relative viability ([4]; first compound 0.01 µM)	relative viability ([4]; first compound 0.03162 µM)	relative viability ([4]; first compound 0.1 µM)	relative viability ([4]; first compound 0.3162 µM)	relative viability ([4]; first compound 1 µM)
NCI-H1975	0.38	0.388	0.319	0.303	0.564	0.521	0.374	0.452	1.05	0.848	0.93	0.889	0.983	0.962	0.9	0.948	0.909	0.941
NCI-H1993	0.532	0.522	0.486	0.458	0.461	0.465	0.27	0.49	0.964	0.848	0.842	0.824	0.865	0.675	0.759	0.727	0.719	0.762
NCI-H2009	0.401	0.369	0.406	0.313	0.221	0.258	0.162	0.212	0.965	1.09	0.928	1.01	0.943	1.14	1.27	1.17	1.22	1.18
NCI-H2023	0.234	0.228	0.177	0.139	0.255	0.22	0.174	0.209	0.711	0.592	0.747	0.571	0.711	0.756	0.695	0.715	0.587	0.643
